Results on five compounds are retold here after US9242969B2, “Biaryl amide compounds as kinase inhibitors” (Novartis AG, priority 2013, dated 2016).

pIC50: −log10 of the molar value.

C-Raf TR (Δ1-324 deletion mutant with activating mutations), sequence (P04049 325-648 Y340E/Y341E): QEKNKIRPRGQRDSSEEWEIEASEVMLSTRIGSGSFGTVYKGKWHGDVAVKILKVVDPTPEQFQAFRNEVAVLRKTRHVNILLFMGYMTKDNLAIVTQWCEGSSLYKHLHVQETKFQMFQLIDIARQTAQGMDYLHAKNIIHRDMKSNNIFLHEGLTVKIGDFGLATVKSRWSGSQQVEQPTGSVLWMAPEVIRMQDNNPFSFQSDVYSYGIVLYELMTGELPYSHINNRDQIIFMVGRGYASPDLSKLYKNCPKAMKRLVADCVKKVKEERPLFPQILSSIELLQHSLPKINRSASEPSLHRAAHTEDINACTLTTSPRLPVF

The target in this test is C-Raf TR (Δ1-324 deletion mutant with activating mutations) (Homo sapiens (Human), UniProt P04049, Y340E/Y341E). Format: biochemical. Particulars: truncated C-Raf (Δ1-324), ATP 3 uM, 10 nM biotinylated MEK1 kinase dead. The procedure:
biotinylated Mek, Kinase dead approximately 10 nM
Pre-incubation time with compounds 30 minutes at room temperature
Reaction time 2 hours at room temperature
Plates were sealed and stored overnight in the dark at room temperature. Plates were counted in a Perkin Elmer Envision instrument.
A word on the pIC50: it is the negative decadic logarithm of the IC50, by convention in mol/L. The low end stands for a high IC50, the high end for a low IC50. In turn, `Cc1ccc(NC(=O)c2cccc(C(F)(F)F)c2)cc1-c1csc(N2CCOCC2)n1` [Example 199, N-(4-methyl-3-(2-morpholinothiazol-4-yl)phenyl)-3-(trifluoromethyl)benzamide] showed a pIC50 of 8.89.
`Cc1ccc(NC(=O)c2cccc(C(F)(F)F)c2)cc1-c1cn(C)c(=O)c(N2CCOCC2)n1` [Example 119, N-(4-methyl-3-(4-methyl-6-morpholino-5-oxo-4,5-dihydropyrazin-2-yl)phenyl)-3-(trifluoromethyl)benzamide] gave a pIC50 of 9.57.
The result for `Cc1ccc(C(=O)Nc2cccc(C(F)(F)F)c2)cc1-c1ccnc(N2CCOCC2)c1` [Example 63, 4-Methyl-3-(2-morpholinopyridin-4-yl)-N-(3-(trifluoromethyl)phenyl)benzamide] reads 9.29; that for `Cc1ccc(C(=O)Nc2cccc(C(F)(F)F)c2)cc1-c1nc(N2CCOCC2)cc(N2CCOCC2)n1` [Example 14, 3-(4,6-dimorpholinopyrimidin-2-yl)-4-methyl-N-(3-(trifluoromethyl)phenyl)benzamide], 9.10; that for `Cc1ccc(NC(=O)c2cccc(C(F)(F)F)c2)cc1-c1cncc(N2CCOCC2)n1` [Example 118, N-(4-methyl-3-(6-morpholinopyrazin-2-yl)phenyl)-3-(trifluoromethyl)benzamide], 9.51.
